These are literature values, as cited in patent US20230330042A1, “FORMULATION FOR ORAL ADMINISTRATION” (NIPPON ZOKI PHARMACEUTICAL CO., LTD., priority 2020, published 2023).

A word on the Ki: it is the equilibrium dissociation constant of an inhibitor or competing ligand from its target. Usually half-life stands for how long it takes for the measured level to halve.

Like-named read-outs stand apart in the source and are kept apart here.

One series addresses κ-opioid receptor (Homo sapiens, UniProt P41145). The note with it: read-out: Ki κ.
In a further series the target is Noradrenaline reuptake (Homo sapiens, UniProt P23975).
For series [1] the following is noted: in vivo.
The next series concerns the target δ-opioid receptor (Homo sapiens, UniProt P41143). The note with it: read-out: Ki δ; Mean value (n = 2-3).
Another series concerns the target Serotonin reuptake (Homo sapiens, UniProt P31645). The note with it: read-out: Ki Serotonin.
Another series addresses μ-opioid receptor (Homo sapiens, UniProt P35372). The note with it: read-out: Ki μ; Mean value (n = 2-3).
[2] abbreviates: Mean value (n = 2-3); NA: no activity at 10 μmol/L; read-out: Ki Noradrenaline.
[3] abbreviates: read-out: Ki Noradrenaline; Mean value (n = 2-3); NA: no activity at 10 μmol/L.

Sequence of κ-opioid receptor (P41145 whole entry): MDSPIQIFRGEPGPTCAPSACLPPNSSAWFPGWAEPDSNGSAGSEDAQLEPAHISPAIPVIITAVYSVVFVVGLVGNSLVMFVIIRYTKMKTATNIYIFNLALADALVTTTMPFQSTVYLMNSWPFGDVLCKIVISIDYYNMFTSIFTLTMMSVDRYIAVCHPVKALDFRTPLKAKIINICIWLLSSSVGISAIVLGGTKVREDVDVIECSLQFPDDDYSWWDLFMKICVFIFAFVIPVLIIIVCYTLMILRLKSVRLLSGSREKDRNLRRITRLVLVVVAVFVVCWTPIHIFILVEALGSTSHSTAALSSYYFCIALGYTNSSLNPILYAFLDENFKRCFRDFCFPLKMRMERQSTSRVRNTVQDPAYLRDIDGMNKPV
Sequence of δ-opioid receptor (P41143 whole entry): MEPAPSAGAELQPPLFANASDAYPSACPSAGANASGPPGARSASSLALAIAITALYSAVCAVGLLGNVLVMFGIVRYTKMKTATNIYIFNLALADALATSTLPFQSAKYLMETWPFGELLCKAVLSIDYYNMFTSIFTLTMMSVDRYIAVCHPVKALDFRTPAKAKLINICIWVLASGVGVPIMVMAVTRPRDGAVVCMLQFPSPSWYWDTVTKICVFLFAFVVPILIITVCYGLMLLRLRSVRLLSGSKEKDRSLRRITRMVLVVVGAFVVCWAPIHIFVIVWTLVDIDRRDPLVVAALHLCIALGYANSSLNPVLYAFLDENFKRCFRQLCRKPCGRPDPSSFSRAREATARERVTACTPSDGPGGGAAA
Sequence of Noradrenaline reuptake (P23975 whole entry): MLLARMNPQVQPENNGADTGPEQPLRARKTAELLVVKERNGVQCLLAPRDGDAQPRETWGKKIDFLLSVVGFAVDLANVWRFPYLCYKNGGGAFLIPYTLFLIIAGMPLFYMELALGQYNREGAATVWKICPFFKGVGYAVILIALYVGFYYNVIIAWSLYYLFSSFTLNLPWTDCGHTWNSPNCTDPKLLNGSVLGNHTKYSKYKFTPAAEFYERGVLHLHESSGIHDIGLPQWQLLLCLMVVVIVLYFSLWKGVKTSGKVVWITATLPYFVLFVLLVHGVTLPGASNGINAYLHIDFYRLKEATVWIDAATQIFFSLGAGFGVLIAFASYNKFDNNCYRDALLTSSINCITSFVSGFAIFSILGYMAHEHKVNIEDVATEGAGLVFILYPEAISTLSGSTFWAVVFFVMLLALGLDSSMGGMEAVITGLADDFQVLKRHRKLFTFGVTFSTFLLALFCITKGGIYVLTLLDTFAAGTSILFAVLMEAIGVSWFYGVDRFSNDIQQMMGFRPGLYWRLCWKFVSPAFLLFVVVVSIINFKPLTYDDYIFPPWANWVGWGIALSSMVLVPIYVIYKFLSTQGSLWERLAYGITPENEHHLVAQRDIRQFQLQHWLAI
Sequence of Serotonin reuptake (P31645 whole entry): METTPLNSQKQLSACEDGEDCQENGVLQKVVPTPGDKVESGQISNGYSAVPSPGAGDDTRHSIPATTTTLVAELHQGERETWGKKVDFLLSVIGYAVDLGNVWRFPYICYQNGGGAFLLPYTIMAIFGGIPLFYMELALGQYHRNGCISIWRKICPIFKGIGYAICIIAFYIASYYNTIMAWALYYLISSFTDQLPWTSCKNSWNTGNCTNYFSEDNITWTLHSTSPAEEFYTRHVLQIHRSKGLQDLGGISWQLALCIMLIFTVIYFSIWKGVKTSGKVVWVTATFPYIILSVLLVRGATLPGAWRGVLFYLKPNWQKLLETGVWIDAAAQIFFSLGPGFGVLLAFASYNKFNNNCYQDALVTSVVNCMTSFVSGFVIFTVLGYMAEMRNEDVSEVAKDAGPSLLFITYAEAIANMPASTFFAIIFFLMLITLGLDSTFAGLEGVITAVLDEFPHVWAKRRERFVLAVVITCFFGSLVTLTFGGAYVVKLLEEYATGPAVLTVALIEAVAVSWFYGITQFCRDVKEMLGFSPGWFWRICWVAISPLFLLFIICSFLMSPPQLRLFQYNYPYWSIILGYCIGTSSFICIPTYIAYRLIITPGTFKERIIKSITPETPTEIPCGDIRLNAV
Sequence of μ-opioid receptor (P35372 whole entry, species assumed): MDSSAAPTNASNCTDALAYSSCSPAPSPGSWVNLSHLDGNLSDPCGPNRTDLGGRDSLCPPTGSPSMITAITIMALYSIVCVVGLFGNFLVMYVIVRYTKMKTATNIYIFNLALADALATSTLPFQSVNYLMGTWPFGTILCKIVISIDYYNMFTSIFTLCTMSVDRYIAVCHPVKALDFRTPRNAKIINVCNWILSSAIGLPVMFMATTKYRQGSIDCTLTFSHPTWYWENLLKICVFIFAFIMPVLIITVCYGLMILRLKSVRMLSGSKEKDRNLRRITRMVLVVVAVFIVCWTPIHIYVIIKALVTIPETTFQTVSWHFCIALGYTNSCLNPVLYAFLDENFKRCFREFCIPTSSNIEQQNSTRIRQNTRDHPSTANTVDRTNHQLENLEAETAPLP

In the case of `CN(C)CC1CCCCC1(O)c1cccc(O)c1` (racemic) [(±)-M1, O-desmethyltramadol], the inhibition constant (Ki) was 0.242 µM at κ-opioid receptor (Mean value (n = 2-3)) and 1.52 µM on Noradrenaline reuptake (setting [2]). Further, in series [1] (po), the half-life is 6 to 7 h.
For the compound `COc1cccc([C@@]2(O)CCCC[C@@H]2CN(C)C)c1` (racemic) [(±)-Tramadol, (1RS,2RS)-2-[(dimethylamino)methyl]-1-(3-methoxyphenyl)cyclohexanol], on κ-opioid receptor, the inhibition constant Ki is 42.7 µM. In addition, the Ki at Noradrenaline reuptake (setting [3]) was 0.785 µM. Moreover, the inhibition constant Ki at δ-opioid receptor is 57.7 µM. The “unchanged tramadol and metabolites excreted through the kidney” value in series [1] is given as “about 90%”. Further, in series [1] (po), the half-life was 5 to 6 h, the “time after administration at which the maximum drug concentration is reached” value is 1.6 to 1.9 h and the “time at which the maximum concentration in the brain is reached” value is 10 min.
As to `CN(C)CC1CCCCC1(O)c1cccc(O)c1` (single isomer, unassigned; (+)) [(+)-M1], the Ki at κ-opioid receptor (Mean value (n = 2-3)) is 0.706 µM; on Noradrenaline reuptake (setting [2]), 14.4 µM; at δ-opioid receptor, 0.594 µM.
On to `COc1cccc(C2(O)CCCCC2CN(C)C)c1` (single isomer, unassigned; (+)) [(+)-Tramadol, (+)-tramadol], for which the figures for the inhibition constant Ki on κ-opioid receptor, on Noradrenaline reuptake (setting [2]) and on δ-opioid receptor were 54 µM, 2.51 µM and 6.24 µM, respectively.
With `CN(C)CC1CCCCC1(O)c1cccc(O)c1` (single isomer, unassigned; (-)) [(−)-M1], the results for the Ki on κ-opioid receptor (Mean value (n = 2-3)), on Noradrenaline reuptake (setting [2]) and on δ-opioid receptor were 32.9 µM, 0.857 µM and 30.5 µM, respectively.
Regarding `COc1cccc(C2(O)CCCCC2CN(C)C)c1` (single isomer, unassigned; (-)) [(−)-Tramadol, (−)-tramadol], the Ki is 53.5 µM on κ-opioid receptor, 0.432 µM at Noradrenaline reuptake (setting [2]) and 213 µM on δ-opioid receptor.
Regarding `COc1ccc2c3c1O[C@H]1[C@@H](O)C=C[C@H]4[C@@H](C2)N(C)CC[C@@]341` [Codeine], the Ki at Noradrenaline reuptake (setting [3]) and at Serotonin reuptake was over 10 µM each time.
As for `CN(C)CCCN1c2ccccc2CCc2ccccc21` [Imipramine], the Ki on μ-opioid receptor is 3.73 µM; on δ-opioid receptor, 12.7 µM.
